Results published in ChEMBL document CHEMBL5550178, “Synthesis and anticancer properties of novel dolastatin 10 analogs featuring five-membered heterocyclic rings with a linkable group at the C-terminus” (Bioorg Med Chem, 2024).
Calls of active or inactive are those of the source. No cut-off for these calls is given here.

Legend:
PANC-1 = test: Cytotoxicity against human PANC-1 cells assessed as inhibition of cell growth measured after 8 days by XTT cell viability assay; format: functional, cell-based; settings: PANC-1, 192 h
MDA-MB-231 = test: Cytotoxicity against human MDA-MB-231 cells assessed as inhibition of cell growth measured after 8 days by XTT cell viability assay; format: functional, cell-based; settings: MDA-MB-231, 192 h
NCI-H1299 = test: Cytotoxicity against human NCI-H1299 cells assessed as inhibition of cell growth measured after 8 days by XTT cell viability assay; format: functional, cell-based; settings: NCI-H1299, 192 h
PC-3 [1] = test: Cytotoxicity against human PC-3 cells assessed as inhibition of cell growth measured after 8 days by XTT cell viability assay; format: functional, cell-based; settings: PC-3, 192 h
[2] = Cytotoxicity against human Fibroblast cells assessed as inhibition of cell growth measured after 8 days by XTT cell viability assay; format: toxicity, cell-based
PC-3 [3] = test: Induction of cell cycle arrest in human PC-3 cells assessed as accumulation of cells at G1/G0 phase at 1 nM measured after 4 days by PI staining based flow cytometry analysis (reference value: 78.3%); format: functional; settings: time 4 day
PC-3 [4] = test: Induction of cell cycle arrest in human PC-3 cells assessed as accumulation of cells at G1/G0 phase at 50 nM measured after 4 days by PI staining based flow cytometry analysis (reference value: 78.3%); format: functional; settings: time 4 day
PC-3 [5] = test: Induction of cell cycle arrest in human PC-3 cells assessed as accumulation of cells at G1/G0 phase at 1000 nM measured after 4 days by PI staining based flow cytometry analysis (reference value: 78.3%); format: functional; settings: time 4 day
PC-3 [6] = test: Induction of cell cycle arrest in human PC-3 cells assessed as accumulation of cells at S phase at 1 nM measured after 4 days by PI staining based flow cytometry analysis (reference value: 9.87%); format: functional; settings: time 4 day
PC-3 [7] = test: Induction of cell cycle arrest in human PC-3 cells assessed as accumulation of cells at S phase at 50 nM measured after 4 days by PI staining based flow cytometry analysis (reference value: 9.87%); format: functional; settings: time 4 day
PC-3 [8] = test: Induction of cell cycle arrest in human PC-3 cells assessed as accumulation of cells at S phase at 1000 nM measured after 4 days by PI staining based flow cytometry analysis (reference value: 9.87%); format: functional; settings: time 4 day
PC-3 [9] = test: Induction of cell cycle arrest in human PC-3 cells assessed as accumulation of cells at G2/M phase at 1 nM measured after 4 days by PI staining based flow cytometry analysis (reference value: 11.9%); format: functional; settings: time 4 day
PC-3 [10] = test: Induction of cell cycle arrest in human PC-3 cells assessed as accumulation of cells at G2/M phase at 50 nM measured after 4 days by PI staining based flow cytometry analysis (reference value: 11.9%); format: functional; settings: time 4 day
PC-3 [11] = test: Induction of cell cycle arrest in human PC-3 cells assessed as accumulation of cells at G2/M phase at 1000 nM measured after 4 days by PI staining based flow cytometry analysis (reference value: 11.9%); format: functional; settings: time 4 day
PC-3 [12] = test: Induction of cell cycle arrest in human PC-3 cells assessed as accumulation of cells at G1/G0 phase at 1 nM measured after 6 days by PI staining based flow cytometry analysis (reference value: 70.7%); format: functional; settings: time 6 day
PC-3 [13] = test: Induction of cell cycle arrest in human PC-3 cells assessed as accumulation of cells at G1/G0 phase at 50 nM measured after 6 days by PI staining based flow cytometry analysis (reference value: 70.7%); format: functional; settings: time 6 day
PC-3 [14] = test: Induction of cell cycle arrest in human PC-3 cells assessed as accumulation of cells at G1/G0 phase at 1000 nM measured after 6 days by PI staining based flow cytometry analysis (reference value: 70.7%); format: functional; settings: time 6 day
PC-3 [15] = test: Induction of cell cycle arrest in human PC-3 cells assessed as accumulation of cells at S phase at 1 nM measured after 6 days by PI staining based flow cytometry analysis (reference value: 14.4%); format: functional; settings: time 6 day
PC-3 [16] = test: Induction of cell cycle arrest in human PC-3 cells assessed as accumulation of cells at S phase at 50 nM measured after 6 days by PI staining based flow cytometry analysis (reference value: 14.4%); format: functional; settings: time 6 day
PC-3 [17] = test: Induction of cell cycle arrest in human PC-3 cells assessed as accumulation of cells at S phase at 1000 nM measured after 6 days by PI staining based flow cytometry analysis (reference value: 14.4%); format: functional; settings: time 6 day
PC-3 [18] = test: Induction of cell cycle arrest in human PC-3 cells assessed as accumulation of cells at G2/M phase at 1 nM measured after 6 days by PI staining based flow cytometry analysis (reference value: 15.8%); format: functional; settings: time 6 day
PC-3 [19] = test: Induction of cell cycle arrest in human PC-3 cells assessed as accumulation of cells at G2/M phase at 50 nM measured after 6 days by PI staining based flow cytometry analysis (reference value: 15.8%); format: functional; settings: time 6 day
PC-3 [20] = test: Induction of cell cycle arrest in human PC-3 cells assessed as accumulation of cells at G2/M phase at 1000 nM measured after 6 days by PI staining based flow cytometry analysis (reference value: 15.8%); format: functional; settings: time 6 day
PC-3 [21] = test: Induction of cell cycle arrest in human PC-3 cells assessed as accumulation of cells at G1/G0 phase at 1 nM measured after 8 days by PI staining based flow cytometry analysis (reference value: 64.6%); format: functional; settings: time 8 day
PC-3 [22] = test: Induction of cell cycle arrest in human PC-3 cells assessed as accumulation of cells at G1/G0 phase at 50 nM measured after 8 days by PI staining based flow cytometry analysis (reference value: 64.6%); format: functional; settings: time 8 day
PC-3 [23] = test: Induction of cell cycle arrest in human PC-3 cells assessed as accumulation of cells at G1/G0 phase at 1000 nM measured after 8 days by PI staining based flow cytometry analysis (reference value: 64.6%); format: functional; settings: time 8 day
PC-3 [24] = test: Induction of cell cycle arrest in human PC-3 cells assessed as accumulation of cells at S phase at 1 nM measured after 8 days by PI staining based flow cytometry analysis (reference value: 23.9%); format: functional; settings: time 8 day
PC-3 [25] = test: Induction of cell cycle arrest in human PC-3 cells assessed as accumulation of cells at S phase at 50 nM measured after 8 days by PI staining based flow cytometry analysis (reference value: 23.9%); format: functional; settings: time 8 day
PC-3 [26] = test: Induction of cell cycle arrest in human PC-3 cells assessed as accumulation of cells at S phase at 1000 nM measured after 8 days by PI staining based flow cytometry analysis (reference value: 23.9%); format: functional; settings: time 8 day
PC-3 [27] = test: Induction of cell cycle arrest in human PC-3 cells assessed as accumulation of cells at G2/M phase at 1 nM measured after 8 days by PI staining based flow cytometry analysis (reference value: 12.4%); format: functional; settings: time 8 day
PC-3 [28] = test: Induction of cell cycle arrest in human PC-3 cells assessed as accumulation of cells at G2/M phase at 50 nM measured after 8 days by PI staining based flow cytometry analysis (reference value: 12.4%); format: functional; settings: time 8 day
PC-3 [29] = test: Induction of cell cycle arrest in human PC-3 cells assessed as accumulation of cells at G2/M phase at 1000 nM measured after 8 days by PI staining based flow cytometry analysis (reference value: 12.4%); format: functional; settings: time 8 day
PC-3 [30] = test: Upregulation of caspase-3 expression in human PC-3 cells at 1 to 50 nM measured after 4 to 8 days by Western blot analysis; format: functional, cell-based; settings: dose 1-50 nM, time 4-8 day
PC-3 [31] = test: Upregulation of CYP1A1 expression in human PC-3 cells at 1 to 50 nM measured after 4 to 8 days by Western blot analysis; format: functional, cell-based; settings: dose 1-50 nM, time 4-8 day
PC-3 [32] = test: Upregulation of BAX expression in human PC-3 cells at 1 to 50 nM measured after 6 days by Western blot analysis; format: functional, cell-based; settings: dose 1-50 nM, time 6.0 day
PC-3 [33] = test: Upregulation of BAX expression in human PC-3 cells at 1 to 50 nM measured after 8 days by Western blot analysis; format: functional, cell-based; settings: dose 1-50 nM, time 8.0 day

CC[C@H](C)[C@@H]([C@@H](CC(=O)N1CCC[C@H]1[C@H](OC)[C@@H](C)C(=O)N[C@@H](Cc1ccccc1)Cn1cc(CO)nn1)OC)N(C)C(=O)[C@@H](NC(=O)[C@H](C(C)C)N(C)C)C(C)C
IC50 (PANC-1): 4.7 nM | IC50 (MDA-MB-231): 63.4 nM | IC50 (NCI-H1299): 7.8 nM | IC50 (PC-3 [1]): 10.9 nM | IC50 at 8 days [2]: 51.5 nM

CC[C@H](C)[C@@H]([C@@H](CC(=O)N1CCC[C@H]1[C@H](OC)[C@@H](C)C(=O)N[C@@H](Cc1ccccc1)Cn1cc(C(=O)O)nn1)OC)N(C)C(=O)[C@@H](NC(=O)[C@H](C(C)C)N(C)C)C(C)C
IC50 (PANC-1): 52 nM | IC50 (MDA-MB-231): 93.9 nM | IC50 (NCI-H1299): 137 nM | IC50 (PC-3 [1]): 15.7 nM | IC50 at 8 days [2]: 39.2 nM

CC[C@H](C)[C@@H]([C@@H](CC(=O)N1CCC[C@H]1[C@H](OC)[C@@H](C)C(=O)N[C@@H](Cc1ccccc1)Cn1cc(CN)nn1)OC)N(C)C(=O)[C@@H](NC(=O)[C@H](C(C)C)N(C)C)C(C)C
IC50 (PANC-1): 10.4 nM | IC50 (MDA-MB-231): 94.6 nM | IC50 (NCI-H1299): 18.7 nM | IC50 (PC-3 [1]): 15.5 nM | IC50 at 8 days [2]: 73.7 nM

CC[C@H](C)[C@@H]([C@@H](CC(=O)N1CCC[C@H]1[C@H](OC)[C@@H](C)C(=O)N[C@@H](Cc1ccccc1)c1nc(CN)cs1)OC)N(C)C(=O)[C@@H](NC(=O)[C@H](C(C)C)N(C)C)C(C)C
IC50 (PANC-1): 0.2 nM | IC50 (MDA-MB-231): 36.2 nM | IC50 (NCI-H1299): 3.1 nM | IC50 (PC-3 [1]): 0.9 nM | IC50 at 8 days [2]: 38.5 nM | Activity (PC-3 [3]): 77.1% | Activity (PC-3 [4]): 69.8% | Activity (PC-3 [5]): 64.5% | Activity (PC-3 [6]): 14.5% | Activity (PC-3 [7]): 19.1% | Activity (PC-3 [8]): 17.8% | Activity (PC-3 [9]): 9.06% | Activity (PC-3 [10]): 12% | Activity (PC-3 [11]): 18.5% | Activity (PC-3 [12]): 35.5% | Activity (PC-3 [13]): 59.6% | Activity (PC-3 [14]): 59.2% | Activity (PC-3 [15]): 29.5% | Activity (PC-3 [16]): 26.4% | Activity (PC-3 [17]): 29.3% | Activity (PC-3 [18]): 36.5% | Activity (PC-3 [19]): 15.3% | Activity (PC-3 [20]): 12.8% | Activity (PC-3 [21]): 65.9% | Activity (PC-3 [22]): 43.3% | Activity (PC-3 [23]): 38.1% | Activity (PC-3 [24]): 26.1% | Activity (PC-3 [25]): 34.1% | Activity (PC-3 [26]): 40.9% | Activity (PC-3 [27]): 9.28% | Activity (PC-3 [28]): 24% | Activity (PC-3 [29]): 22.9% | Activity (PC-3 [30]): Active | Activity (PC-3 [31]): Active | Activity (PC-3 [32]): Active | Activity (PC-3 [33]): inactive

CC[C@H](C)[C@@H]([C@@H](CC(=O)N1CCC[C@H]1[C@H](OC)[C@@H](C)C(=O)N[C@@H](Cc1ccccc1)Cn1cc(CNC)nn1)OC)N(C)C(=O)[C@@H](NC(=O)[C@H](C(C)C)N(C)C)C(C)C
IC50 (PANC-1): 1.3 nM | IC50 (MDA-MB-231): 19.8 nM | IC50 (NCI-H1299): 4.7 nM | IC50 (PC-3 [1]): 8.9 nM | IC50 at 8 days [2]: 38.4 nM
